Assays:
Assay type in all cases: cell-based, rat
[1] = system: heparan sulfate (HS) of RFPEC glycocalyx; test: HS expression (coverage) in RFPEC glycocalyx by immunofluorescence confocal microscopy (Example 1)
Description: (§1) Cell Culture. Rat fat pad ECs (RFPEC) at passages 20 to 39 were offspring of cells isolated from rat epididymal fat pad and provided by Dr. Mia Thi of Albert Einstein College of Medicine (Bronx, N.Y.). […] The RFPECs are immortalized, making it possible to use late passages. RFPEC were seeded on 12-14-mm diameter and 0.13-0.17-mm thick glass coverslips at a seeding density of 15,000-20,000 cells/cm^2. Cells were cultured in Dulbecco's Modified Eagle Medium (DMEM, Invitrogen, USA) with 1% penicillin-streptomycin (PS) and 10% fetal bovine serum (FBS, Gibco Life Technologies). Cells were maintained in humidity at 37° C. and 5% CO2. RFPECs reached full confluence in 3 days.
(§2) Cultured RFPECs produce thick and robust GCX in this time period. At 3 days post-seeding the RFPECs' culture medium was supplemented with 1% BSA in place of FBS to stabilize the GCX during preservation and immunolabeling (described below). For enzyme treatment experiments, 25 micro-international units per milliliter (μIU/ml) of heparinase III (Hep III; IBEX, Canada) were added to BSA-containing culture media for 2 hours to degrade HS from the GCX [46]. HepIII was washed out, and the wash-out was followed by a 16-hour incubation of RFPECs in regular BSA-containing media. In self-recovery experiments, RFPEC GCX was left to recover for 24 hours after enzyme degradation. The time frame was chosen in accordance with the 20-hour time period that is required for HS restoration to occur on the surface of ECs. For HS recovery experiments, exogenous HS and/or S1P were applied for 16 hours to accommodate the communication test as an assessment of functional glycocalyx recovery. […] After HS was degraded with HepIII, it was replaced by a 16-hour feeding of RFPECs with 59 μg/ml exogenous porcine mucosal HS (Celsus, Cincinnati, Ohio), based on published serum concentration of HS [43]. In sphingosine-1-phosphate experiments, culture media containing enzyme was substituted for media containing either 10 μM of S1P (Sigma-Aldrich) or a combination of 59 μg/ml of HS and 10 μM of S1P for 16 hours after enzyme degradation.
Immunostaining. RFPECs have high affinity to most antibodies that are available for performing immunocytochemistry. For heparan sulfate (HS), RFPEC monolayers were treated with 2% paraformaldehyde/1% glutaraldehyde in phosphate buffered saline (PBS) for fixation, treated with 2% goat serum in PBS to block non-specific ligands, and stained for three nights at 4° C. with a 1:100 10E4-epitope HS antibody (Amsbio).
As specified by the manufacturer, the HS antibody reacts with many types of heparan sulfate. The reactivity of the HS antibody is abolished after treatment with Hep III, indicating antibody specificity. […]

Cx43 at RFPEC borders = test: Cx43 expression at EC borders, immunostaining and confocal microscopy
Description: as §1, §2
As specified by the manufacturer, the HS antibody reacts with many types of heparan sulfate. The reactivity of the HS antibody is abolished after treatment with Hep III, indicating antibody specificity. For secondary detection of HS, Alexa Flour 488 conjugated goat anti-mouse IgG/IgM (H+L; Life Technologies) secondary antibody was used. RFPECs to be processed for connexin 43 (Cx43) were fixed in 4% paraformaldehyde, permeabilized in 0.2% Triton X-100 (Fisher), and blocked in 5% goat serum combined with 0.2% Triton X-100. Connexin 43 staining was performed overnight at 4° C. with 1:100 mouse monoclonal Cx43 antibody (Millipore). […] Secondary Cx43 detection was done with Alexa Flour 488 conjugated goat anti-mouse IgG. […] These controls confirmed that the staining observed in the RFPECs is not an artefact.
Confocal immunofluorescence microscopy imaging and analysis. Alexa Fluor 488 fluorescent RFPECs were mounted with Vectashield containing DAPI (Vector Labs) and imaged with a Zeiss LSM 700 laser scanning confocal microscope. HS and Cx43 were imaged at 63× magnification (oil objective) and 40× magnification (oil objective), respectively. Lasers with excitation wavelengths of 490 nm (for HS or Cx43) and 350 nm (for DAPI) were used to obtain XY-plane slices. Laser gain and transmission were kept below fluorophore saturation levels. Confocal slice intervals were 0.2 μm for HS and 0.7 μm for Cx43. […]

[2] = system: Cx-containing gap junctions of RFPEC; test: Lucifer Yellow scratch-loading dye transfer assay (gap junction communication)
Description: as §1, §2
Dye transfer assay, fluorescence microscopy and image analysis. Gap junction functionality was assessed by loading Lucifer Yellow in RFPECs, using a scratch technique, and observing the extent of Lucifer Yellow transfer from loaded cells to neighboring cells (FIG. 7B). Lucifer Yellow has a molecular weight of 457.3 and can only enter cells via broken membranes or via gap junctions. The scratch loading technique involved pre-incubation of RFPECs (for 1 minute) with calcium- and magnesium-free Hanks' Balanced Salt Solution (HBSS; Life Technology) containing 5 mg/ml Lucifer Yellow dye (Life Technology). A 5-μm diameter tip scribe (Ted Pella, Inc, USA) was then used to carefully create a straight scratch in the RFPEC monolayer and to allow the dye to enter the scratched cells. After the dye was loaded, it spread via open gap junctions to adjacent intact cells, with the extent of Lucifer Yellow spread reaching a plateau by 10 minutes after loading. At that point, excess dye was washed out and RFPECs were imaged at 10× magnification (dry objective) using a Zeiss Observer Z1 fluorescence microscope. From recorded images of dye transfer after scratch loading, ImageJ randomly selected dye spread locations that would be quantified along the scratch. At those random locations, lines perpendicular to the scratch axis were drawn, and the intact fluorescent cells (scratched cells excluded) were counted. […]

[3] = RFPEC, Hep III, then 16 h with or without 59 μg/ml HS and/or 10 μM S1P, mean±SEM
[4] = after Hep III, HS 59 μg/ml, S1P 10 μM

SMILES	HS expression in GCX, result in words (FIG. 2 legend) ([1]; 25 μIU/ml Hep III, HS 59 μg/ml, S1P 10 μM)	HS coverage of cell surfaces ([1]; RFPEC, Hep III 2 hours, probed 16 hours after, with or without 59 μg/ml exogenous HS and/or 10 μM S1P for the 16 hours, mean±SEM) [%]	Cx43 distribution along the perimeter of the cells (Cx43 at RFPEC borders; [3]) [%]	Cx43 distribution/expression, result in words (FIG. 3 legend) (Cx43 at RFPEC borders; [4])	Lucifer Yellow dye spread, neighboring cells receiving dye per scratch-loaded cell [2, 3] [cells]	Lucifer Yellow dye transfer, result in words (FIG. 4 legend) [2, 4]	effect of actin disruption on cell-to-cell movement of Lucifer Yellow dye ([2]; preliminary studies, data not shown)
CCCCCCCCCCCCC/C=C/[C@@H](O)[C@@H](N)COP(=O)(O)O [S1P, sphingosine-1-phosphate]	significantly recovered the expression of HS in GCX, back to baseline conditions	71.97±5.02	34.81±5.16	did not show a significant restoration of Cx43 expression	2.06±0.08	did not improve cell-to-cell communication	–
C=C1[C@@H](C)[C@H]2[C@H](Cc3ccccc3)NC(=O)[C@]23[C@H](OC(C)=O)/C=C/[C@@](C)(O)C(=O)[C@@H](C)C/C=C/[C@H]3[C@@H]1O [cytochalasin D]	–	–	–	–	–	–	bars cell-to-cell movement of Lucifer Yellow dye
